Some test systems named below: NCI-H460; U-251; SW-620; MDA-MB-231; SNB-19; BT-549; SK-MEL-28; HCC 2998; A549; CCRF-CEM; MDA-N; NCI-H23; HL-60; KM12; HOP-92; HCT-15; 786-0; UACC-257; LOX IMVI; CAKI-1.
Common to all, as to assay: growth of human tumour cells (NCI), 48 h

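Dose response: 5 concentrations. Exposure: 48 h. Format: 96-well plates. Endpoint: linear interpolation; highest concentration if not reached. GI50 = concentration required for 50% inhibition of growth.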 Active and inactive are the calls of the source. Rule as the data show it: active = GI50 up to about 1.1 µM and inactive = higher. Bounds are passed on as bounds.

As for `Cn1c(N)nc(-c2ccc(Cl)cc2)c1SSc1c(-c2ccc(Cl)cc2)nc(N)n1C`, the GI50 in the experiment on NCI-H460 was 3.45 µM (inactive); with U-251 it was 2.03 µM (inactive); in the experiment with SW-620, 2.07 µM (inactive); with MDA-MB-231 it was 1.4 µM (inactive); in the experiment on SNB-19 it was 14.7 µM (inactive); in the experiment on BT-549, 2.58 µM (inactive). Moreover, the GI50 was 2.02 µM (inactive) with SK-MEL-28; 7.82 µM (inactive) in the experiment on HCC 2998; 12.8 µM (inactive) with A549; 2.44 µM (inactive) in the experiment on CCRF-CEM; 1.77 µM (inactive) in the experiment with MDA-N; 1.63 µM (inactive) in the experiment with NCI-H23. For the same compound, the GI50 was 1.05 µM (active) with HL-60; 1.85 µM (inactive) in the experiment with KM12; 1.97 µM (inactive) with HOP-92; 1.77 µM in the experiment with HCT-15; 1.92 µM (inactive) with 786-0; 2.04 µM (inactive) in the experiment on UACC-257.

Consider `Brc1ccc(C2CC3(c4ccccc4)ON=C(c4ccccc4)N3c3ccccc3S2)cc1` (stereo unspecified), for which the GI50 in the experiment with NCI-H460, in the experiment on U-251, in the experiment on SW-620, in the experiment on LOX IMVI, in the experiment with MDA-MB-231 and in the experiment on SNB-19 was > 100 µM (inactive) each time. Besides, the GI50 with BT-549, with SK-MEL-28, in the experiment with HCC 2998, in the experiment with A549, in the experiment with CCRF-CEM and in the experiment with MDA-N was > 100 µM (inactive) in each case. In addition, the GI50 is > 100 µM (inactive) with NCI-H23; > 100 µM (inactive) in the experiment with HL-60; > 100 µM (inactive) in the experiment on KM12; > 100 µM (inactive) in the experiment with HOP-92; above 100 µM with HCT-15; > 100 µM (inactive) with 786-0. Further, the GI50 with UACC-257 is > 100 µM (inactive).

As to `CC(C)(C)OC(=O)[C@@H]1CCC(=S)N1Cc1ccccc1`, the GI50 with NCI-H460, in the experiment with U-251, in the experiment on SW-620, in the experiment on LOX IMVI, in the experiment with MDA-MB-231 and in the experiment on SNB-19 was > 100 µM (inactive) throughout. Further, the GI50 is 71.8 µM (inactive) in the experiment on BT-549; > 100 µM (inactive) with SK-MEL-28; > 100 µM (inactive) in the experiment with HCC 2998; > 100 µM (inactive) in the experiment with CAKI-1; > 100 µM (inactive) with A549; > 100 µM (inactive) with CCRF-CEM. Besides, the GI50 was > 100 µM (inactive) with MDA-N; 70.1 µM (inactive) in the experiment with NCI-H23; > 100 µM (inactive) in the experiment on KM12; > 100 µM (inactive) in the experiment on HOP-92; above 100 µM in the experiment with HCT-15; > 100 µM (inactive) with 786-0. Besides, the GI50 in the experiment with UACC-257 was > 100 µM (inactive).

As to `COc1ccc(-n2cnc3c(NCC(=O)O)ncnc32)cc1`, the GI50 in the experiment on NCI-H460, in the experiment with U-251, in the experiment on SW-620, in the experiment on LOX IMVI, in the experiment with MDA-MB-231 and with SNB-19 was > 100 µM (inactive) throughout. For the same compound, the GI50 in the experiment on BT-549 was > 100 µM (inactive); with SK-MEL-28, > 100 µM (inactive); with HCC 2998, > 100 µM (inactive); in the experiment on CAKI-1 it was > 100 µM (inactive); in the experiment with A549, > 100 µM (inactive); with CCRF-CEM it was 48.5 µM (inactive). For the same compound, the GI50 is > 100 µM (inactive) with MDA-N; > 100 µM (inactive) in the experiment with NCI-H23; > 100 µM (inactive) in the experiment on KM12; > 100 µM (inactive) with HOP-92; above 100 µM with HCT-15; > 100 µM (inactive) in the experiment with 786-0. Moreover, the GI50 with UACC-257 is > 100 µM (inactive).

For the compound `C/C(=N\Nc1nc2ccccc2o1)c1cccc[n+]1[O-]`, the GI50 in the experiment with NCI-H460 was 9.18 µM (inactive); with U-251, 8.26 µM (inactive); with SW-620 it was 5.12 µM (inactive); in the experiment with LOX IMVI, 13.4 µM (inactive); in the experiment with MDA-MB-231, 60.3 µM (inactive); in the experiment with SNB-19, 64.7 µM (inactive). In addition, the GI50 is 81.7 µM (inactive) in the experiment with BT-549; 24.8 µM (inactive) with SK-MEL-28; 0.0769 µM (active) in the experiment with HCC 2998; 2.69 µM (inactive) with CAKI-1; 24.5 µM (inactive) in the experiment on A549; 4.3 µM (inactive) in the experiment with CCRF-CEM. The GI50 with MDA-N is 60.7 µM (inactive); in the experiment with NCI-H23, 26.6 µM (inactive); with KM12 it was 23.2 µM (inactive); in the experiment on HOP-92, 2.53 µM (inactive); in the experiment on HCT-15 it was 4.88 µM; in the experiment with 786-0, 21.7 µM (inactive). The GI50 in the experiment on UACC-257 is 13 µM (inactive).

As for `CSc1nc2c(c(N(C)C)n1)C=Nn1c(nc3ccccc31)S2`, the GI50 in the experiment on NCI-H460 was 89.1 µM (inactive); in the experiment with U-251, > 100 µM (inactive); in the experiment on SW-620, > 100 µM (inactive); in the experiment with LOX IMVI, 76.2 µM (inactive); in the experiment with MDA-MB-231 it was 78.2 µM (inactive); with SNB-19 it was > 100 µM (inactive). Also, the GI50 was 95.9 µM (inactive) with BT-549; > 100 µM (inactive) in the experiment with SK-MEL-28; 70.5 µM (inactive) with HCC 2998; > 100 µM (inactive) in the experiment on CAKI-1; 69 µM (inactive) in the experiment on A549; 95.1 µM (inactive) in the experiment with MDA-N. Further, the GI50 is > 100 µM (inactive) in the experiment on NCI-H23; > 100 µM (inactive) in the experiment on KM12; 25.7 µM (inactive) in the experiment on HOP-92; above 100 µM in the experiment with HCT-15; 65 µM (inactive) in the experiment with 786-0; 99.1 µM (inactive) in the experiment with UACC-257.

Regarding `O=C1CC2(c3ccccc3)ON=C(c3ccccc3)N2c2ccccc2N1` (stereo unspecified), the GI50 with NCI-H460 is 36.7 µM (inactive); in the experiment with U-251, 80.9 µM (inactive); with SW-620, 62.4 µM (inactive); in the experiment with LOX IMVI, 66.4 µM (inactive); in the experiment with MDA-MB-231, 40.8 µM (inactive); with SNB-19, > 100 µM (inactive). Also, the GI50 with BT-549 is 37.2 µM (inactive); with SK-MEL-28, 50.6 µM (inactive); with HCC 2998, 65 µM (inactive); with CCRF-CEM, 42.2 µM (inactive); with MDA-N, 32.7 µM (inactive); in the experiment with NCI-H23, 47.3 µM (inactive). The GI50 in the experiment with HL-60 is 26.7 µM (inactive); in the experiment with KM12 it was 74 µM (inactive); in the experiment on HOP-92, 22.1 µM (inactive); in the experiment with HCT-15, 53.8 µM; with 786-0, 88.7 µM (inactive); in the experiment on UACC-257 it was 71.8 µM (inactive).

Consider `CCOC1OC(CO)C(O)CC1n1ccc(=O)[nH]c1=O` (stereo unspecified), for which the GI50 in the experiment with NCI-H460, in the experiment with U-251, with SW-620, in the experiment on LOX IMVI, in the experiment with MDA-MB-231 and in the experiment on SNB-19 was > 100 µM (inactive) in each case. The GI50 in the experiment with BT-549, with SK-MEL-28, with HCC 2998, in the experiment with CAKI-1, with A549 and in the experiment with MDA-N was > 100 µM (inactive) in each case. The GI50 with NCI-H23 is > 100 µM (inactive); in the experiment on KM12, > 100 µM (inactive); in the experiment with HOP-92 it was > 100 µM (inactive); with HCT-15, above 100 µM; with 786-0, > 100 µM (inactive); with UACC-257, > 100 µM (inactive).

Take `S=C1N(/N=C/c2c3ccccc3cc3ccccc23)C(=N\c2ccccc2)/C(=N/c2ccccc2)N1c1ccccc1`: the GI50 in the experiment with NCI-H460, with U-251, in the experiment with SW-620, with MDA-MB-231, in the experiment on SNB-19 and in the experiment with BT-549 was > 100 µM (inactive) in each case. In addition, the GI50 with SK-MEL-28, with HCC 2998, with CAKI-1, in the experiment with A549, with MDA-N and in the experiment on NCI-H23 was > 100 µM (inactive) throughout. The GI50 with KM12 was > 100 µM (inactive); in the experiment on HOP-92, > 100 µM (inactive); with HCT-15, above 100 µM; in the experiment on 786-0, > 100 µM (inactive); in the experiment on UACC-257, > 100 µM (inactive).

Regarding `Nc1cc(OCc2ccccc2)c(OCc2ccccc2)cc1C=O`, the GI50 in the experiment on NCI-H460 was 14.1 µM (inactive); in the experiment with U-251, 28.4 µM (inactive); in the experiment on SW-620, 46.2 µM (inactive); in the experiment on LOX IMVI, 26.2 µM (inactive); in the experiment on MDA-MB-231 it was 44.2 µM (inactive); in the experiment on SNB-19, 32.9 µM (inactive). Besides, the GI50 was 14.5 µM (inactive) in the experiment with BT-549; 42.1 µM (inactive) in the experiment with SK-MEL-28; 8.57 µM (inactive) in the experiment with HCC 2998; 23.8 µM (inactive) in the experiment on A549; 22.3 µM (inactive) in the experiment with CCRF-CEM; 39.5 µM (inactive) in the experiment on MDA-N. Moreover, the GI50 was > 10 µM (inactive) in the experiment on NCI-H23; 15.2 µM (inactive) in the experiment with HL-60; 23.3 µM (inactive) in the experiment on KM12; 19.8 µM in the experiment with HCT-15; 17.5 µM (inactive) with 786-0; 85.9 µM (inactive) in the experiment on UACC-257.

For `CN1C(=O)C(=CNc2ccccc2[N+](=O)[O-])C(=O)N(C)C1=O`, the GI50 in the experiment on NCI-H460, in the experiment with U-251, with SW-620, in the experiment on LOX IMVI, in the experiment with MDA-MB-231 and with SNB-19 was > 100 µM (inactive) each time. For the same compound, the GI50 in the experiment with BT-549, with HCC 2998, with CAKI-1, in the experiment on A549, in the experiment on CCRF-CEM and in the experiment with MDA-N was > 100 µM (inactive) throughout. The GI50 in the experiment with NCI-H23 is > 100 µM (inactive); with KM12, > 100 µM (inactive); in the experiment with HOP-92, > 100 µM (inactive); in the experiment with HCT-15, above 100 µM; with 786-0 it was > 100 µM (inactive); in the experiment on UACC-257 it was > 100 µM (inactive).

The values above are taken from ChEMBL document CHEMBL1201862, “PubChem BioAssay data set” (2004).
